Data: article PMC8404221 (European journal of pharmaceutical sciences : official …, 2021)
Where “and” joins values, the source holds several entries; their conditions need not be identical. Equal values may be shown once. Read-outs that look alike come from different tables or passages of the source. Marks after values point to notes of the source that are not given here.

How the values were obtained:
MAO-A = settings: read-out: MAO-A IC50, published, ref Bálint et al., 2017, Clarke and Ramsay, 2011, Herraiz and Brandt, 2014, Herraiz and Chaparro, 2005, Ionescu et al., 2012, Kim et al., 1997, Rahman and Rahmatullah, 2010, Reniers et al., Rommelspacher et al., 1994, Rüben et al., 2015, Santillo et al., Wurzlbauer et al., 2020; cited from earlier work
CLK1 [1] = molecular target: T1, CLK1 (Homo sapiens, UniProt P49759); experiment: InCELL Hunter / PathHunter in-cell target engagement assay; type: cell-based; settings: for Effect on β-gal activity (CLK1 target engagement): 0.5, 5 and 50 μM
T1 sequence (P49759 whole entry): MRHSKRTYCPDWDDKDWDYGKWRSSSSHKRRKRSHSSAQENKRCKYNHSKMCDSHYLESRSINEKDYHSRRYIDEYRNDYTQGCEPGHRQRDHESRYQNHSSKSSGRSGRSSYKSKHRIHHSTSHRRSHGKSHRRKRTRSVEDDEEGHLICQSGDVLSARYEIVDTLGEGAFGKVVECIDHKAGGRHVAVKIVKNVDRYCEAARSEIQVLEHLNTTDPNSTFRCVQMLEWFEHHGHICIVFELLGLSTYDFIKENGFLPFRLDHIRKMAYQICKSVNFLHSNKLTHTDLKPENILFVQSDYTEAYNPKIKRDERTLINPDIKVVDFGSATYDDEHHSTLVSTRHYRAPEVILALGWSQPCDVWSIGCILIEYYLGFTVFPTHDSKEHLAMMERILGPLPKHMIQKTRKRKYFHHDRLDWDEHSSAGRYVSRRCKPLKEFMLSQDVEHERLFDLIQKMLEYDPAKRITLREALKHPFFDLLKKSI

DYRK1A [2] = molecular target: T2, DYRK1A (Homo sapiens, UniProt Q13627); settings: read-out: DYRK1A IC50, published values, ref Adayev et al., 2011, Bain et al., 2007, Bálint et al., 2017, Bruel et al., 2014, Foucourt et al., Göckler et al., 2009, Grabher et al., 2012, Kim et al., 2016, Kumar et al., 2018, Liu et al., 2017b, PubChem; cited from earlier work
DYRK1A [3] = molecular target: T2, DYRK1A; experiment: biochemical; type: biochemical
DYRK1A [4] = molecular target: T2, DYRK1A; experiment: biochemical; type: binding; settings: for inhibition at 6.7 µM: read-out: DYRK1A inhibition in pilot HTS
U87 cells [5] = experiment: PrestoBlue cell proliferation/viability assay; type: cell-based, human; settings: 72 h; for IC50: Homo sapiens, U-87 MG, read-out: U87 (cell proliferation) IC50; for U87 (cell proliferation) % inhibition at highest dose tested: PrestoBlue
[6] = molecular target: T3, Monoamine oxidase-A (MAO-A) (Homo sapiens, UniProt P21397); experiment: biochemical; type: biochemical
T3 sequence (P21397 1-527): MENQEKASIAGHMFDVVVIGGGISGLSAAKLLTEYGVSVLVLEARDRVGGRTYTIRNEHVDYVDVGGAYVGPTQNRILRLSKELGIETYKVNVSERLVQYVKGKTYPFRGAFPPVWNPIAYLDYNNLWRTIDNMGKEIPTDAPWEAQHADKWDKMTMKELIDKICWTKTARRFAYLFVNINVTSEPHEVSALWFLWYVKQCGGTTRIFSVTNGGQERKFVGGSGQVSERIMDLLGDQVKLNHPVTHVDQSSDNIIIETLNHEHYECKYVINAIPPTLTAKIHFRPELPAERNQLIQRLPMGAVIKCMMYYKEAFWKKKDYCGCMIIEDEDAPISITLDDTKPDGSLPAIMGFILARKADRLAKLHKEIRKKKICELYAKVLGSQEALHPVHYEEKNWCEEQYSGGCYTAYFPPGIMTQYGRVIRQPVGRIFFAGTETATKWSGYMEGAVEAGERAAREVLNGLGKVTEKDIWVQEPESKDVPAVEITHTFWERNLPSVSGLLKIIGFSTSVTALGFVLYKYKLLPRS

H4 cells [7] = experiment: High content imaging assay; type: cell-based, human; settings: 72 h, read-out: H4 (nuclear count) IC50
[8] = test system: U87 human glioblastoma cells; experiment: U87 glioma tumor xenograft in nude NU/J mice; type: in vivo; settings: for Effect on body weight: up to 21 days; for Tremor activity in treated mice: anecdotal observation, duration of the study
H4 cells [9] = experiment: PrestoBlue cell proliferation/viability assay; type: cell-based, human; settings: 72 h; for IC50: Homo sapiens, read-out: H4 (cell proliferation) IC50
U87 cells [10] = experiment: High content imaging assay; type: cell-based, human; settings: 72 h; for IC50 / inhibition at 66 µM: Homo sapiens, U-87 MG; for IC50: read-out: U87 (nuclear count) IC50; for U87 (nuclear count) % inhibition at highest dose tested: Hoechst 33342 high content imaging, highest dose tested (66 μM); for inhibition at 66 µM: read-out: U87 (nuclear count) % inhibition at highest dose tested
panel of 10 kinases = experiment: Kinase selectivity panel; settings: 10 μM
CK1α1 = CK1α1 (Homo sapiens, UniProt P48729); experiment: Kinase selectivity panel; settings: 10 μM, n = 2
CK1α1, sequence (P48729 whole entry): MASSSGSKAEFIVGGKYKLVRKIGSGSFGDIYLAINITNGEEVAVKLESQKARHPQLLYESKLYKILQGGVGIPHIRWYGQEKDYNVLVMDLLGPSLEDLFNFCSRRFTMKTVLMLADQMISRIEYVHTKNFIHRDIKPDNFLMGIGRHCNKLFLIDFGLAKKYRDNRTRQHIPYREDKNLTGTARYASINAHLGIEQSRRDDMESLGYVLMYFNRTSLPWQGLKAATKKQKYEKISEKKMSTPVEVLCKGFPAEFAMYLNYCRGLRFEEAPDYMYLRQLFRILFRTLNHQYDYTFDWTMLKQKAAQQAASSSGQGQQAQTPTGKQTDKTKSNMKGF

PIM1 = PIM1 (Homo sapiens, UniProt P11309); experiment: Kinase selectivity panel; settings: 10 μM, n = 2
PIM1, sequence (P11309 whole entry): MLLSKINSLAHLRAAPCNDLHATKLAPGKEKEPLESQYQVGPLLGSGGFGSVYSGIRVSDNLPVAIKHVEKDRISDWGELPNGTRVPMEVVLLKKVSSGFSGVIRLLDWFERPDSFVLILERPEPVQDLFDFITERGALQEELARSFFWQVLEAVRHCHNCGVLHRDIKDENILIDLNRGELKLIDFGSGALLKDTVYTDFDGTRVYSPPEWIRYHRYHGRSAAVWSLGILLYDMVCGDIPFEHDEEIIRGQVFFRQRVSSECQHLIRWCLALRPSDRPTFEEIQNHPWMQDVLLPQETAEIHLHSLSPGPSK

DYRK2 = molecular target: T4, DYRK2 (Homo sapiens, UniProt Q92630); experiment: Kinase selectivity panel; settings: 10 μM, n = 2
T4 sequence (Q92630 1-601): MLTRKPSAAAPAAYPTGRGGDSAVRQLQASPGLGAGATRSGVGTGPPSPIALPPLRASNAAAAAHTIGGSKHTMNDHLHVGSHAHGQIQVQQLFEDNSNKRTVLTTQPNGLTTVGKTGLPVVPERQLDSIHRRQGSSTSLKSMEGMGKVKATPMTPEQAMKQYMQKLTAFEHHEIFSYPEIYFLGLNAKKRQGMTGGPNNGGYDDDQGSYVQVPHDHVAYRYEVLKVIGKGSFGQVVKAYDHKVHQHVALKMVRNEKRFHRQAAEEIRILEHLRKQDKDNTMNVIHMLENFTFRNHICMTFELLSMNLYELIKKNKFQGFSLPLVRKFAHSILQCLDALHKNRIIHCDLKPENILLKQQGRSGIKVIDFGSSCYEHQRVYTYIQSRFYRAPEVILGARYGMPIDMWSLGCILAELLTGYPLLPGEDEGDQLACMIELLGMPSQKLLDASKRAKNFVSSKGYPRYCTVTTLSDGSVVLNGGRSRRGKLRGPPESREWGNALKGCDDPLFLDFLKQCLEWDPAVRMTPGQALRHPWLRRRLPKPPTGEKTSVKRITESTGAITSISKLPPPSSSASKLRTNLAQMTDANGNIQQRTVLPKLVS

DYRK1B = DYRK1B (Homo sapiens, UniProt Q9Y463); experiment: Kinase selectivity panel; type: biochemical; settings: 10 μM, n = 2
DYRK1B, sequence (Q9Y463 whole entry): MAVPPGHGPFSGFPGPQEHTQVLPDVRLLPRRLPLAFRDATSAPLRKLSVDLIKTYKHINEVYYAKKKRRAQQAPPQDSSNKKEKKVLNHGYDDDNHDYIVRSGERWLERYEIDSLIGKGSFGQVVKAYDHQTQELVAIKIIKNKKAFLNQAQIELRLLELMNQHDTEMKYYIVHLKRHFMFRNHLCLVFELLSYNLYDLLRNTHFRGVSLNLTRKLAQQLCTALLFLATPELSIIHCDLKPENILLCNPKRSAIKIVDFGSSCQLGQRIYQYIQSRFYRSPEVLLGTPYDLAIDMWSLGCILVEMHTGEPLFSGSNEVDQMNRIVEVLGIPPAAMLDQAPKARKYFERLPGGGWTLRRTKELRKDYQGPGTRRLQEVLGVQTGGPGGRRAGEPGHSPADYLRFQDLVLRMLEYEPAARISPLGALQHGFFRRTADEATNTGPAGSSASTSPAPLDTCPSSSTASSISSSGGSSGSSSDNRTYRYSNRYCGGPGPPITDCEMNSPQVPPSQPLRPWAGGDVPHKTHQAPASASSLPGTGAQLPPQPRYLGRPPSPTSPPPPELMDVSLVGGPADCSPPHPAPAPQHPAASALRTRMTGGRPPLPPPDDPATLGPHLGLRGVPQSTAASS

DYRK1A [11] = molecular target: T2, DYRK1A; experiment: Kinase selectivity panel; type: biochemical; settings: 10 μM, n = 2
CLK1 [12] = molecular target: T1, CLK1; experiment: Kinase selectivity panel; type: biochemical; settings: 10 μM, n = 2
[13] = DYRK1A IC50, TR-FRET, 10-point 2-fold dose response
[14] = using TR-FRET DYRK1A IC50 values

Row | SMILES | IC50 (MAO-A) [nM] | IC50 (DYRK1A [2]) [nM] | IC50 (DYRK1A [3]) [nM] | IC50 (DYRK1A [4]; [13]) [nM] | inhibition at 6.7 µM (DYRK1A [4]) [%] | IC50 ([6]; MAO-A IC50, MAO-A Glo) [nM] | DYRK1A:MAO-A (IC50 ratio) [6, 14] | IC50 (H4 cells [7]; Homo sapiens) [µM] | IC50 (H4 cells [9]) [µM] | U87 (cell proliferation) % inhibition at highest dose tested (U87 cells [5]) | inhibition at 66 µM (U87 cells [10]) [%] | further results
1 | Cc1[nH]ccc2c1[nH]c1cc(=O)ccc12 [Harmol, harmol] | 530 | 44 to 298 | 16 | 100 | 78 | 500 | 0.2 | 20 | 10.9 | – | – | Effect on β-gal activity (CLK1 target engagement) (CLK1 [1]): increase in β-gal activity; Fold more potent IC50 with 33P-ATP assay versus TR-FRET (DYRK1A [3]; DYRK1A): 6–7 fold; IC50 (DYRK1A [4]; DYRK1A IC50, TR-FRET, dose response): 70 to 100 nM; IC50 (U87 cells [5]): 19.1 µM; Fold weaker than harmine for MAO-A [6]: 10 fold; Tumor inhibition rate ([8]; 15 mg/kg i.p. q.d.): 28.2%; Effect on body weight ([8]; 15 mg/kg i.p. q.d.): did not lead to significant differences in body weight; Tumor inhibition rate ([8]; 60 mg/kg i.p. q.d.): 38.1%; Effect on body weight ([8]; 60 mg/kg i.p. q.d.): did not lead to significant differences in body weight; Survival (Kaplan-Meier) compared to vehicle ([8]; 60 mg/kg i.p. q.d., not statistically significant): trend towards improved survival; Tremor activity in treated mice [8]: no tremor activity; Tumor growth ([8]; high dose (60 mg/kg), day 21, not reaching significance): modest decrease in tumor growth; IC50 (U87 cells [10]): 20.8 µM; Number of the 10 kinases displaying 50% or greater inhibition (panel of 10 kinases): 7
2 | CN[C@@H]1C[C@H]2O[C@@](C)([C@@H]1OC)n1c3ccccc3c3c4c(c5c6ccccc6n2c5c31)C(=O)NC4 [Staurosporine, reference compound] | – | – | – | – | – | – | – | – | – | – | – | MAO-A IC50, MAO-A Glo [6]: No inhibition
3 | COc1ccc2c(c1)[nH]c1c(C)nccc12 [Harmine, harmine, reference compound] | 3 to 107 | – | – | – | 74 | – | – | 14.9 | 4.9 | – | – | Reduction in enzyme activity, CK1α1 (CK1α1): ≥ 70%; Effect on β-gal activity (CLK1 target engagement) (CLK1 [1]): increase in β-gal activity; Reduction in enzyme activity, PIM1 (PIM1): ≥ 70%; IC50 (U87 cells [5]): > 25 µM; Tumor inhibition rate ([8]; 15 mg/kg i.p. q.d.): 16.5%; Effect on body weight ([8]; 15 mg/kg i.p. q.d.): did not lead to significant differences in body weight; Tremor activity in treated mice [8]: no tremor activity; IC50 (U87 cells [10]): 17.6 µM
4 | COc1ccc2c3c([nH]c2c1)[C@@H](C)NCC3 [Tetrahydroharmine, tetrahydroharmine] | – | 2990 | – | – | – | – | 6.2 | – | – | No inhibition ^c | – | IC50 (DYRK1A [3]; read-out: DYRK1A IC50, 33P-ATP, casein substrate, ATP 10 μM, data generated by Reaction Biology): 6420 nM; IC50 (DYRK1A [4]; read-out: DYRK1A IC50, TR-FRET, 10-point 2-fold dose response): 9410 nM; IC50 (DYRK1A [4]; read-out: DYRK1A IC50, TR-FRET, 10-point 2-fold dose response, listed as tetrahydroharmine): 9400 nM; Reduction in enzyme activity, DYRK2 (DYRK2): minimal effect; IC50 ([6]; read-out: MAO-A IC50, MAO-A Glo): 1520 nM; IC50 (H4 cells [7]; Hoechst 33342 high content imaging): 26.9 µM; H4 (cell proliferation) % inhibition at highest dose tested (H4 cells [9]; PrestoBlue, highest dose tested): 38%^c; U87 (nuclear count) % inhibition at highest dose tested (U87 cells [10]): ~50% ^c
5 | c1ccc2c(c1)[nH]c1cnccc12 [Norharmane, norharmane] | […] | 8750 | 3190 | 5460 | – | – | – | 29.1 | > 25 | No inhibition ^c | – | U87 (nuclear count) % inhibition at highest dose tested (U87 cells [10]): No inhibition ^c
6 | COc1ccc2c3c([nH]c2c1)C(C)=NCC3 [Harmaline, harmaline] | 5 to 20 | 1240 to 4590 | 790 | 2350 | 81 | 90 | 26.1 | 14.9 | 19.6 | 14% ^c | ~66 | Fold more potent on MAO-A over DYRK1A ([6]; DYRK1A TR-FRET vs MAO-A): ~ 25 fold and ~ 30 fold; IC50 ([6]; MAO-A IC50, MAO-Glo): 60 to 90 nM
7 | CC1=NCCc2c1[nH]c1cc(O)ccc21 [Harmalol, harmalol] | 153 | – | 180 | 630 | 79 | 660 | – | 25.2 | 23.7 | 37% ^c | < 50 | Reduction in enzyme activity, DYRK1B (DYRK1B): ~100%; Fold lower activity against DYRK1A than harmol (DYRK1A [4]): ~ 6 fold; Reduction in enzyme activity, DYRK1A (panel) (DYRK1A [11]): ~100%; DYRK1A:MAO-A (IC50 ratio) [6]: 1.0; Reduction in enzyme activity, CLK1 (CLK1 [12]): ~100%
8 | Cc1nccc2c1[nH]c1ccccc12 [Harmane, harmane] | 29 to 337 | 1820 | 1000 | 2680 | 71 | 640 | 4.2 | 17.1 | > 25 | 30% ^c | ~50 | –
9 | COC(=O)[C@@]1(O)C[C@H]2O[C@]1(C)n1c3ccccc3c3c4c(c5c6ccccc6n2c5c31)C(=O)NC4 [K252a] | – | – | – | – | – | – | – | – | – | – | – | EC50 (CLK1 [1]; read-out: CLK1 cellular target engagement EC50, positive control inhibitor): 8.7 nM
